# Laboratory results as given in PubChem BioAssay AID256 (DTP/NCI, 2004).
# Where “and” joins values, the source holds several entries; their conditions need not be identical. Identical values can stand only once. Toxic doses and inconclusive results are not listed.
# Tested on: CD2F1 mice, L1210 leukemia ip, survival T/C
# Experiment: NCI In Vivo Anticancer Drug Screen. Data for tumor model L1210 Leukemia (intraperitoneal) in CD2F1 (CDF1) mice
# Settings: higher = longer survival
# Outline: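 Antitumor effect is scored in animals hosting a serially transplanted tumor. Values compare compound-dosed animals against vehicle-only controls as a simple quotient.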
# [1] = endpoint: mean survival time, dose: 100.0 mg/kg/injection, schedule: Q04DX002 (ip), vehicle: saline with Tween-80
# [2] = endpoint: mean survival time, dose: 200.0 mg/kg/injection, schedule: Q04DX002 (ip), vehicle: saline with Tween-80
# [3] = endpoint: mean survival time, dose: 200.0 mg/kg/injection, schedule: Q04DX003 (ip), vehicle: saline with Tween-80
# [4] = endpoint: mean survival time, dose: 400.0 mg/kg/injection, schedule: Q04DX002 (ip), vehicle: saline with Tween-80
# [5] = endpoint: mean survival time, dose: 100.0 mg/kg/injection, schedule: Q01DX001 (ip), vehicle: saline with Tween-80
# [6] = endpoint: mean survival time, dose: 200.0 mg/kg/injection, schedule: Q01DX001 (ip), vehicle: saline with Tween-80
# [7] = endpoint: mean survival time, dose: 400.0 mg/kg/injection, schedule: Q01DX001 (ip), vehicle: saline with Tween-80
# [8] = endpoint: mean survival time, dose: 100.0 mg/kg/injection, schedule: Q01DX009 (ip), vehicle: saline with Tween-80
# [9] = endpoint: mean survival time, dose: 100.0 mg/kg/injection, schedule: Q04DX003 (ip), vehicle: saline with Tween-80
# [10] = endpoint: mean survival time, dose: 12.5 mg/kg/injection, schedule: Q01DX009 (ip), vehicle: saline with Tween-80
# [11] = endpoint: mean survival time, dose: 25.0 mg/kg/injection, schedule: Q01DX009 (ip), vehicle: saline with Tween-80
# [12] = endpoint: mean survival time, dose: 50.0 mg/kg/injection, schedule: Q01DX009 (ip), vehicle: saline with Tween-80
smiles,measurement,setting,value
NC(=S)N/N=C/c1ccc(OC(=O)COc2ccccc2)cn1,T/C,"endpoint: mean survival time, dose: 88.0 mg/kg/injection, schedule: Q04DX003 (ip), vehicle: saline with Tween-80",123 % of control
same,T/C,[1],118 % of control
same,T/C,[2],122 % of control
same,T/C,[3],118 % of control
same,T/C,[4],152 % of control and 155 % of control
same,T/C,"endpoint: mean survival time, dose: 800.0 mg/kg/injection, schedule: Q04DX002 (ip), vehicle: saline with Tween-80",174 % of control
c1cc(CSc2ncnc3nc[nH]c23)ccn1,T/C,"endpoint: mean survival time, dose: 178.0 mg/kg/injection, schedule: Q01DX001 (ip), vehicle: saline",118 % of control
same,T/C,"endpoint: mean survival time, dose: 267.0 mg/kg/injection, schedule: Q01DX001 (ip), vehicle: saline",115 % of control
same,T/C,"endpoint: mean survival time, dose: 400.0 mg/kg/injection, schedule: Q01DX001 (ip), vehicle: saline",119 % of control
CC12CCC(O)CC1=CCC1C2CCC2(C)C1CCC21CCNP(=O)(N(CCCl)CCCl)O1 (stereo not drawn),T/C,"endpoint: mean survival time, dose: 62.5 mg/kg/injection, schedule: Q01DX001 (ip), vehicle: saline",98 % of control
same,T/C,"endpoint: mean survival time, dose: 125.0 mg/kg/injection, schedule: Q01DX001 (ip), vehicle: saline",101 % of control
same,T/C,"endpoint: mean survival time, dose: 250.0 mg/kg/injection, schedule: Q01DX001 (ip), vehicle: saline",93 % of control
same,T/C,"endpoint: mean survival time, dose: 500.0 mg/kg/injection, schedule: Q01DX001 (ip), vehicle: saline",97 % of control
CCOC(=O)c1c[nH]c([O-])c1[N+]#N,T/C,[5],94 % of control
same,T/C,[1],100 % of control
same,T/C,[6],96 % of control
same,T/C,[2],107 % of control
same,T/C,[7],91 % of control
same,T/C,[4],103 % of control
CC1CCN(N=Nc2ccc(Br)cc2-c2nc(N)c3cc(Br)ccc3n2)CC1,T/C,"endpoint: mean survival time, dose: 6.25 mg/kg/injection, schedule: Q01DX005 (ip), vehicle: other",92 % of control
same,T/C,"endpoint: mean survival time, dose: 12.5 mg/kg/injection, schedule: Q01DX005 (ip), vehicle: other",103 % of control
same,T/C,"endpoint: mean survival time, dose: 25.0 mg/kg/injection, schedule: Q01DX005 (ip), vehicle: other",95 % of control
same,T/C,"endpoint: mean survival time, dose: 50.0 mg/kg/injection, schedule: Q01DX005 (ip), vehicle: other",92 % of control
same,T/C,"endpoint: mean survival time, dose: 100.0 mg/kg/injection, schedule: Q01DX005 (ip), vehicle: other",92 % of control
CCOC(=O)c1ccc(NC(=O)CCOc2ccccc2)cc1,T/C,[8],92 % of control and 101 % of control
same,T/C,[1],91 % of control
same,T/C,[9],86 % of control
same,T/C,"endpoint: mean survival time, dose: 200.0 mg/kg/injection, schedule: Q01DX009 (ip), vehicle: saline with Tween-80",92 % of control and 96 % of control
same,T/C,[2],86 % of control and 87 % of control
same,T/C,[3],86 % of control
same,T/C,"endpoint: mean survival time, dose: 400.0 mg/kg/injection, schedule: Q01DX009 (ip), vehicle: saline with Tween-80",89 % of control and 95 % of control
same,T/C,[4],94 % of control
CC[C@@]1(O)C(=O)OCc2c1cc1n(c2=O)Cc2cc3cc(O)ccc3nc2-1,T/C,"endpoint: mean survival time, dose: 2.0 mg/kg/injection, schedule: Q04DX003 (ip), vehicle: other",155 % of control
same,T/C,"endpoint: mean survival time, dose: 4.0 mg/kg/injection, schedule: Q04DX003 (ip), vehicle: other",174 % of control
same,T/C,"endpoint: mean survival time, dose: 16.0 mg/kg/injection, schedule: Q04DX003 (ip), vehicle: other",107 % of control
same,T/C,"endpoint: median survival time, dose: 1.25 mg/kg/injection, schedule: Q04DX002 (ip), vehicle: saline",184 % of control
same,T/C,"endpoint: median survival time, dose: 1.5 mg/kg/injection, schedule: Q04DX002 (ip), vehicle: saline",166 % of control
same,T/C,"endpoint: median survival time, dose: 2.5 mg/kg/injection, schedule: Q04DX002 (ip), vehicle: saline",162 % of control and 253 % of control
same,T/C,"endpoint: median survival time, dose: 3.0 mg/kg/injection, schedule: Q04DX002 (ip), vehicle: suspension in saline",150 % of control
same,T/C,"endpoint: median survival time, dose: 5.0 mg/kg/injection, schedule: Q04DX002 (ip), vehicle: saline",232 % of control and 301 % of control
same,T/C,"endpoint: median survival time, dose: 6.0 mg/kg/injection, schedule: Q04DX002 (ip), vehicle: suspension in saline",153 % of control
same,T/C,"endpoint: median survival time, dose: 10.0 mg/kg/injection, schedule: Q04DX002 (ip), vehicle: saline",192 % of control and 209 % of control
same,T/C,"endpoint: median survival time, dose: 12.0 mg/kg/injection, schedule: Q04DX002 (ip), vehicle: suspension in saline",228 % of control
same,T/C,"endpoint: median survival time, dose: 20.0 mg/kg/injection, schedule: Q04DX002 (ip), vehicle: saline",184 % of control and 348 % of control
same,T/C,"endpoint: median survival time, dose: 40.0 mg/kg/injection, schedule: Q04DX002 (ip), vehicle: saline",102 % of control
same,T/C,"endpoint: median survival time, dose: 48.0 mg/kg/injection, schedule: Q04DX002 (ip), vehicle: suspension in saline",87 % of control
COc1ccc(-n2cnc3c(=O)[nH]cnc32)cc1,T/C,[1],86 % of control
same,T/C,[2],90 % of control
same,T/C,[4],86 % of control
CSc1ccccc1C(=O)OC(C)(C)C,T/C,[5],96 % of control
same,T/C,[6],103 % of control
same,T/C,[7],103 % of control
CC(=O)N(C)N=Nc1ccc(C(F)(F)F)cc1,T/C,"endpoint: mean survival time, dose: 50.0 mg/kg/injection, schedule: Q04DX003 (ip), vehicle: Klucel (hydroxypropylcellulose) (HPC)",97 % of control
same,T/C,"endpoint: mean survival time, dose: 100.0 mg/kg/injection, schedule: Q04DX003 (ip), vehicle: Klucel (hydroxypropylcellulose) (HPC)",102 % of control
same,T/C,"endpoint: mean survival time, dose: 200.0 mg/kg/injection, schedule: Q04DX003 (ip), vehicle: Klucel (hydroxypropylcellulose) (HPC)",96 % of control
same,T/C,"endpoint: mean survival time, dose: 400.0 mg/kg/injection, schedule: Q04DX003 (ip), vehicle: Klucel (hydroxypropylcellulose) (HPC)",105 % of control
N#Cc1cccnc1Cl,T/C,"endpoint: median survival time, dose: 50.0 mg/kg/injection, schedule: Q04DX002 (ip), vehicle: saline with Tween-80",100 % of control
same,T/C,"endpoint: median survival time, dose: 100.0 mg/kg/injection, schedule: Q04DX002 (ip), vehicle: saline with Tween-80",100 % of control
same,T/C,"endpoint: median survival time, dose: 200.0 mg/kg/injection, schedule: Q04DX002 (ip), vehicle: saline with Tween-80",111 % of control
CC(=O)c1ccc(CCCCCCCC(=O)O)o1,T/C,"endpoint: mean survival time, dose: 50.0 mg/kg/injection, schedule: Q01DX001 (ip), vehicle: Klucel (hydroxypropylcellulose) (HPC)",97 % of control
same,T/C,"endpoint: mean survival time, dose: 100.0 mg/kg/injection, schedule: Q01DX001 (ip), vehicle: Klucel (hydroxypropylcellulose) (HPC)",101 % of control
same,T/C,"endpoint: mean survival time, dose: 200.0 mg/kg/injection, schedule: Q01DX001 (ip), vehicle: Klucel (hydroxypropylcellulose) (HPC)",94 % of control
O=C(/C(=N\Nc1ccc([N+](=O)[O-])cc1)c1ccccc1)c1ccccc1,T/C,[10],96 % of control
same,T/C,[11],88 % of control
same,T/C,[12],88 % of control
same,T/C,[9],97 % of control
same,T/C,[3],97 % of control
same,T/C,"endpoint: mean survival time, dose: 400.0 mg/kg/injection, schedule: Q04DX003 (ip), vehicle: saline with Tween-80",101 % of control
O=C/C=C/C=C/C=C/c1ccccc1,T/C,"endpoint: mean survival time, dose: 62.5 mg/kg/injection, schedule: Q01DX001 (ip), vehicle: distilled water + alcohol",93 % of control
same,T/C,"endpoint: mean survival time, dose: 125.0 mg/kg/injection, schedule: Q01DX001 (ip), vehicle: distilled water + alcohol",96 % of control
same,T/C,"endpoint: mean survival time, dose: 250.0 mg/kg/injection, schedule: Q01DX001 (ip), vehicle: distilled water + alcohol",92 % of control
same,T/C,"endpoint: mean survival time, dose: 500.0 mg/kg/injection, schedule: Q01DX001 (ip), vehicle: distilled water + alcohol",90 % of control
same,T/C,"endpoint: median survival time, dose: 50.0 mg/kg/injection, schedule: Q01DX009 (ip), vehicle: saline",98 % of control
same,T/C,"endpoint: median survival time, dose: 100.0 mg/kg/injection, schedule: Q01DX009 (ip), vehicle: saline",106 % of control
same,T/C,"endpoint: median survival time, dose: 200.0 mg/kg/injection, schedule: Q01DX009 (ip), vehicle: saline",100 % of control
same,T/C,"endpoint: median survival time, dose: 400.0 mg/kg/injection, schedule: Q01DX009 (ip), vehicle: saline",101 % of control
same,T/C,"endpoint: median survival time, dose: 800.0 mg/kg/injection, schedule: Q01DX009 (ip), vehicle: saline",100 % of control
O=C1c2ccccc2C(=O)c2c(O)c(S(=O)(=O)O)cc(O)c21,T/C,"endpoint: mean survival time, dose: 100.0 mg/kg/injection, schedule: Q04DX003 (ip), vehicle: saline",93 % of control
same,T/C,"endpoint: mean survival time, dose: 200.0 mg/kg/injection, schedule: Q04DX003 (ip), vehicle: saline",96 % of control
O=Cc1c(O)c2ccccc2[nH]c1=O,T/C,"endpoint: mean survival time, dose: 6.25 mg/kg/injection, schedule: Q01DX009 (ip), vehicle: saline with Tween-80",101 % of control
same,T/C,[10],103 % of control
same,T/C,[11],103 % of control
same,T/C,[12],112 % of control
same,T/C,[8],106 % of control
same,T/C,"endpoint: median survival time, dose: 12.0 mg/kg/injection, schedule: Q01DX009 (ip), vehicle: Klucel (hydroxypropylcellulose) (HPC)",98 % of control
same,T/C,"endpoint: median survival time, dose: 25.0 mg/kg/injection, schedule: Q01DX009 (ip), vehicle: Klucel (hydroxypropylcellulose) (HPC)",105 % of control
same,T/C,"endpoint: median survival time, dose: 50.0 mg/kg/injection, schedule: Q01DX009 (ip), vehicle: Klucel (hydroxypropylcellulose) (HPC)",113 % of control
same,T/C,"endpoint: median survival time, dose: 100.0 mg/kg/injection, schedule: Q01DX009 (ip), vehicle: Klucel (hydroxypropylcellulose) (HPC)",104 % of control
